Where “and” joins values, the source holds several entries; their conditions need not be identical. Equal values may be shown once.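 Grown in 96-well plates, cells were treated for 48 hours with each compound at five concentrations. Insufficient inhibition: endpoint recorded as highest concentration tested. GI50: concentration for 50% inhibition of growth. TGI marks complete inhibition of growth.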
Key:
Experiment in all cases: NCI tumour cell line growth inhibition, 48 h
786-0 renal = test system: 786-0 renal
A498 renal = test system: A498 renal
A549 NSCLC = test system: A549 NSCLC
ACHN renal = test system: ACHN renal
CAKI-1 renal = test system: CAKI-1 renal
CCRF-CEM leukemia = test system: CCRF-CEM leukemia
COLO 205 colon = test system: COLO 205 colon
DLD-1 colon = test system: DLD-1 colon
DMS 114 small cell lung = test system: DMS 114 small cell lung
HCT-116 colon = test system: HCT-116 colon
HCT-15 colon = test system: HCT-15 colon
HL-60(TB) leukemia = test system: HL-60(TB) leukemia
HOP-18 NSCLC = test system: HOP-18 NSCLC
HOP-62 NSCLC = test system: HOP-62 NSCLC
HOP-92 NSCLC = test system: HOP-92 NSCLC
HT29 colon = test system: HT29 colon
IGROV1 ovarian = test system: IGROV1 ovarian
K-562 leukemia = test system: K-562 leukemia
KM12 colon = test system: KM12 colon
KM20L2 colon = test system: KM20L2 colon
LOX IMVI melanoma = test system: LOX IMVI melanoma
LXFL 529 NSCLC = test system: LXFL 529 NSCLC
M14 melanoma = test system: M14 melanoma
M19-MEL melanoma = test system: M19-MEL melanoma
MALME-3M melanoma = test system: MALME-3M melanoma
MOLT-4 leukemia = test system: MOLT-4 leukemia
NCI-H226 lung = test system: NCI-H226 lung
NCI-H23 lung = test system: NCI-H23 lung
NCI-H460 lung = test system: NCI-H460 lung
NCI-H522 lung = test system: NCI-H522 lung
OVCAR-3 ovarian = test system: OVCAR-3 ovarian
OVCAR-4 ovarian = test system: OVCAR-4 ovarian
OVCAR-5 ovarian = test system: OVCAR-5 ovarian
OVCAR-8 ovarian = test system: OVCAR-8 ovarian
RPMI-8226 leukemia = test system: RPMI-8226 leukemia
RXF-631 renal = test system: RXF-631 renal
SF-268 CNS = test system: SF-268 CNS
SF-295 CNS = test system: SF-295 CNS
SF-539 CNS = test system: SF-539 CNS
SK-MEL-2 melanoma = test system: SK-MEL-2 melanoma
SK-MEL-28 melanoma = test system: SK-MEL-28 melanoma
SK-MEL-5 melanoma = test system: SK-MEL-5 melanoma
SK-OV-3 ovarian = test system: SK-OV-3 ovarian
SN12C renal = test system: SN12C renal
SNB-19 CNS = test system: SNB-19 CNS
SNB-75 CNS = test system: SNB-75 CNS
SNB-78 CNS = test system: SNB-78 CNS
SR leukemia = test system: SR leukemia
SW-620 colon = test system: SW-620 colon
TK-10 renal = test system: TK-10 renal
U251 CNS = test system: U251 CNS
UACC-257 melanoma = test system: UACC-257 melanoma
UACC-62 melanoma = test system: UACC-62 melanoma
UO-31 renal = test system: UO-31 renal
DMS 273 small cell lung = test system: DMS 273 small cell lung
EKVX NSCLC = test system: EKVX NSCLC
HCC-2998 colon = test system: HCC-2998 colon
RXF 393 renal = test system: RXF 393 renal
NCI/ADR-RES ovarian = test system: NCI/ADR-RES ovarian
P388 leukemia = test system: P388 leukemia
P388/ADR leukemia = test system: P388/ADR leukemia
PC-3 prostate = test system: PC-3 prostate
SN12K1 renal = test system: SN12K1 renal
T-47D breast = test system: T-47D breast
XF 498 CNS = test system: XF 498 CNS

SMILES: CC(=O)OCC1OC(Nc2[nH]c(=O)n(C)c(=O)c2-c2csc(N)n2)C(OC(C)=O)C(OC(C)=O)C1OC(C)=O (stereo not given)
- TGI (786-0 renal): > 100 µM
- TGI (A498 renal): > 100 µM
- TGI (A549 NSCLC): > 100 µM
- TGI (ACHN renal): > 100 µM
- TGI (CAKI-1 renal): > 100 µM
- TGI (CCRF-CEM leukemia): > 100 µM
- TGI (COLO 205 colon): > 100 µM
- TGI (DLD-1 colon): > 100000 nM
- TGI (DMS 114 small cell lung): > 100000 nM
- TGI (HCT-116 colon): > 100000 nM
- TGI (HCT-15 colon): > 100 µM
- TGI (HL-60(TB) leukemia): > 100 µM
- TGI (HOP-18 NSCLC): > 100000 nM
- TGI (HOP-62 NSCLC): > 100 µM
- TGI (HOP-92 NSCLC): > 100000 nM
- TGI (HT29 colon): > 100 µM
- TGI (IGROV1 ovarian): > 100 µM
- TGI (K-562 leukemia): > 100 µM
- TGI (KM12 colon): > 100 µM
- TGI (KM20L2 colon): > 100000 nM
- TGI (LOX IMVI melanoma): > 100 µM
- TGI (LXFL 529 NSCLC): > 100 µM
- TGI (M14 melanoma): > 100 µM
- TGI (M19-MEL melanoma): > 100000 nM
- TGI (MALME-3M melanoma): > 100 µM
- TGI (MOLT-4 leukemia): > 100 µM
- TGI (NCI-H226 lung): > 100 µM
- TGI (NCI-H23 lung): > 100 µM
- TGI (NCI-H460 lung): > 100 µM
- TGI (NCI-H522 lung): > 100000 nM
- TGI (OVCAR-3 ovarian): > 100000 nM
- TGI (OVCAR-4 ovarian): > 100 µM
- TGI (OVCAR-5 ovarian): > 100 µM
- TGI (OVCAR-8 ovarian): > 100 µM
- TGI (RPMI-8226 leukemia): > 100 µM
- TGI (RXF-631 renal): > 100 µM
- TGI (SF-268 CNS): > 100 µM
- TGI (SF-295 CNS): > 100 µM
- TGI (SF-539 CNS): > 100 µM
- TGI (SK-MEL-2 melanoma): > 100000 nM
- TGI (SK-MEL-28 melanoma): > 100 µM
- TGI (SK-MEL-5 melanoma): > 100 µM
- TGI (SK-OV-3 ovarian): > 100 µM
- TGI (SN12C renal): > 100 µM
- TGI (SNB-19 CNS): > 100000 nM
- TGI (SNB-75 CNS): > 100 µM
- TGI (SNB-78 CNS): > 100000 nM
- TGI (SR leukemia): > 100 µM
- TGI (SW-620 colon): > 100 µM
- TGI (TK-10 renal): > 100 µM
- TGI (U251 CNS): > 100 µM
- TGI (UACC-257 melanoma): > 100 µM
- TGI (UACC-62 melanoma): > 100000 nM
- TGI (UO-31 renal): > 100 µM

SMILES: O=C(Nc1cccc2ccccc12)Oc1ccccc1C1CCCCC1
- TGI (A498 renal): 31.5 µM
- TGI (A549 NSCLC): 44.1 µM
- TGI (CCRF-CEM leukemia): 53.7 µM
- TGI (DLD-1 colon): 44800 nM
- TGI (DMS 114 small cell lung): 41900 nM
- TGI (DMS 273 small cell lung): 38100 nM
- TGI (EKVX NSCLC): 65.9 µM
- TGI (HCC-2998 colon): 34300 nM
- TGI (HCT-116 colon): 32200 nM
- TGI (HCT-15 colon): 33.9 µM
- TGI (HL-60(TB) leukemia): 64.2 µM
- TGI (HOP-18 NSCLC): 33200 nM
- TGI (HOP-62 NSCLC): 33.1 µM
- TGI (HOP-92 NSCLC): 30700 nM
- TGI (HT29 colon): 34.1 µM
- TGI (IGROV1 ovarian): 51.2 µM
- TGI (K-562 leukemia): 60.4 µM
- TGI (KM12 colon): 41.7 µM
- TGI (KM20L2 colon): 47500 nM
- TGI (LOX IMVI melanoma): 31.1 µM
- TGI (LXFL 529 NSCLC): 38.9 µM
- TGI (M14 melanoma): 32.4 µM
- TGI (M19-MEL melanoma): 43400 nM
- TGI (MALME-3M melanoma): 35.1 µM
- TGI (MOLT-4 leukemia): 55.3 µM
- TGI (NCI-H226 lung): 32.7 µM
- TGI (NCI-H23 lung): 33.7 µM
- TGI (NCI-H460 lung): 33 µM
- TGI (OVCAR-3 ovarian): 39500 nM
- TGI (OVCAR-4 ovarian): 32.7 µM
- TGI (OVCAR-5 ovarian): 32.1 µM
- TGI (OVCAR-8 ovarian): 32.5 µM
- TGI (RPMI-8226 leukemia): 81.9 µM
- TGI (RXF 393 renal): 29.2 µM
- TGI (RXF-631 renal): 36.7 µM
- TGI (SF-268 CNS): 98.9 µM
- TGI (SF-295 CNS): 31.3 µM
- TGI (SF-539 CNS): 32 µM
- TGI (SK-MEL-2 melanoma): 40400 nM
- TGI (SK-MEL-28 melanoma): 38.1 µM
- TGI (SK-MEL-5 melanoma): 28.8 µM
- TGI (SK-OV-3 ovarian): 67.7 µM
- TGI (SN12C renal): 30.1 µM
- TGI (SNB-19 CNS): > 100000 nM
- TGI (SNB-75 CNS): 29.8 µM
- TGI (SNB-78 CNS): 57900 nM
- TGI (SR leukemia): 57 µM
- TGI (SW-620 colon): 40 µM
- TGI (TK-10 renal): 72.3 µM
- TGI (U251 CNS): 26.7 µM
- TGI (UACC-257 melanoma): 29.8 µM
- TGI (UACC-62 melanoma): 30500 nM
- TGI (UO-31 renal): 34.6 µM

SMILES: CCC1(O)CC(OC2CC(N(C)C)C(OC3CC4OC5CC(=O)C(C)OC5OC4C(C)O3)C(C)O2)c2c(cc3c(c2O)C(=O)c2c(O)ccc(O)c2C3=O)C1C(=O)OC (stereo not given)
- GI50 (A498 renal): 4.59 nM
- TGI (A498 renal): 0.016 µM
- GI50 (ACHN renal): 0.823 nM
- GI50 (CAKI-1 renal): 2.51 nM and 7.63 nM
- GI50 (DLD-1 colon): 9.84 nM
- TGI (DLD-1 colon): 690 nM and 130 nM
- TGI (DMS 114 small cell lung): 43.1 nM and 47.3 nM
- GI50 (DMS 273 small cell lung): 7.5 nM
- TGI (DMS 273 small cell lung): 34.2 nM and 21.7 nM
- GI50 (HCC-2998 colon): 21 nM and 10 nM
- TGI (HCC-2998 colon): 60.7 nM and 19.9 nM and < 46.5 nM
- TGI (HCT-116 colon): 23.8 nM and 126 nM and 87.5 nM
- GI50 (HOP-18 NSCLC): 8.75 nM and 16.3 nM
- TGI (HOP-18 NSCLC): 82.1 nM and 76.4 nM
- TGI (HOP-92 NSCLC): 82.8 nM and 64.4 nM
- GI50 (K-562 leukemia): 0.761 nM and 7.54 nM
- GI50 (KM20L2 colon): 3.51 nM and 7.5 nM
- TGI (KM20L2 colon): 356 nM and 46.2 nM and 88.9 nM
- GI50 (LOX IMVI melanoma): 9.15 nM
- TGI (LXFL 529 NSCLC): 1.18 µM
- GI50 (M14 melanoma): 24.5 nM
- TGI (M19-MEL melanoma): 70.5 nM and 24.1 nM
- GI50 (NCI-H522 lung): 1.11 nM and 7.88 nM
- TGI (NCI-H522 lung): 31.9 nM and 12.2 nM and 18.2 nM
- GI50 (NCI/ADR-RES ovarian): 6.29 nM and 10.9 nM and < 10.5 nM
- TGI (NCI/ADR-RES ovarian): 94.3 nM and 224 nM and 171 nM
- GI50 (OVCAR-3 ovarian): 6.56 nM and 7.11 nM
- TGI (OVCAR-3 ovarian): 78.9 nM and 23.2 nM and < 17.4 nM
- GI50 (OVCAR-5 ovarian): 1.38 nM and 2.25 nM and 9.43 nM
- GI50 (P388 leukemia): 7.5 nM
- TGI (P388 leukemia): 4.22 nM and 8.17 nM
- GI50 (P388/ADR leukemia): 7.5 nM
- TGI (P388/ADR leukemia): 8 nM and < 45.1 nM
- TGI (PC-3 prostate): 57.6 nM and 150 nM
- GI50 (SK-MEL-2 melanoma): 9.19 nM and 4.39 nM and 8.79 nM
- TGI (SK-MEL-2 melanoma): 30.9 nM and 14.9 nM and 14.8 nM
- GI50 (SN12K1 renal): 8.62 nM
- TGI (SN12K1 renal): 36.9 nM and 32.5 nM
- TGI (SNB-19 CNS): 117 nM and 245 nM and 1170 nM
- GI50 (SNB-78 CNS): 12.6 nM
- TGI (SNB-78 CNS): 854 nM and 536 nM
- TGI (T-47D breast): 17.2 nM and 15.2 nM
- GI50 (TK-10 renal): 16.8 nM and 3.14 nM
- GI50 (U251 CNS): 4.86 nM and 7.85 nM and < 12.1 nM
- GI50 (UACC-62 melanoma): 4.79 nM and 8.57 nM
- TGI (UACC-62 melanoma): 16.4 nM and 13.6 nM
- GI50 (XF 498 CNS): 2.56 nM
- TGI (XF 498 CNS): 19.9 nM and 10.3 nM

From PubChem BioAssay (NCI)
